Numbering of substitutions follows the chain as printed.
Experiments:
Assay in all cases: Saturation binding of ^125I-HEAT
[1] = biological target: T1, human α1A-AR F187A variant (Homo sapiens, UniProt P35348, F187A)
T1 construct: expressed in transfected cells; host or cells: COS-7, transient (calcium phosphate)
T1 sequence (P35348 1-466 F187A): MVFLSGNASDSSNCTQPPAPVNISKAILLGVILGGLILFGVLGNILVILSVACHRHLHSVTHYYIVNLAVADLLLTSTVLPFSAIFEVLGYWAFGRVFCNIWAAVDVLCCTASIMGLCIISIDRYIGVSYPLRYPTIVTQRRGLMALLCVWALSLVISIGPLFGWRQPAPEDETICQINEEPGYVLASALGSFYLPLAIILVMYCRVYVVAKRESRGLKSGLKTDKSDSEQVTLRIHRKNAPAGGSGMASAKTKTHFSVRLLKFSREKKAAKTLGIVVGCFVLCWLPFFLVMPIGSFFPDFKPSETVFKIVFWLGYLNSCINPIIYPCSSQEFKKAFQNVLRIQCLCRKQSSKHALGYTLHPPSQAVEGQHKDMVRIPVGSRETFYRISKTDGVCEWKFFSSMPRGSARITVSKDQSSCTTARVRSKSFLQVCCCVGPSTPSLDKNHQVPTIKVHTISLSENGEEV
Description: (§1) α1A-AR cDNA inserted in the prK5 vector was kindly provided by Michael Brownstein (Craig Venter Institute, Rockville, MD). Point mutations were introduced into the α1A-AR gene by sense and antisense primers (Sigma-Aldrich, St Quentin-Fallavier, France) containing the desired changes, using the QuikChange Site-Directed Mutagenesis kit. The incorporation of each mutation was verified by DNA sequencing.
(§2) CHO cells stably expressing α1-ARs were kindly provided by Dr. Hervé Paris (INSERM U858, Toulouse, France) and were grown in a 50∶50 Dulbecco's Modified Eagle's Medium (DMEM)/Ham's F12 medium supplemented with 10% (v/v) foetal bovine serum (FBS), glutamine (2 mM), penicillin (100 units/ml) and streptomycin (100 µg/ml) at 37°C with 5% CO2. COS-7 cells were grown at 37°C under 5% CO2 in Dulbecco's modified Eagle's medium containing 10% fetal calf serum, 1% penicillin and 1% glutamine (Sigma-Aldrich, St Quentin-Fallavier, France). At 80% confluence, the cells were transfected using a calcium phosphate precipitation method for transient expression of the genetic construct. After 48 h incubation at 37°C, cells were harvested and the membranes were prepared as follow. Cells were washed with ice-cold phosphate buffer and centrifuged at 1700 g for 10 min (4°C). The pellet was suspended in ice-cold buffer (1 mM EDTA, 25 mM sodium phosphate, and 5 mM MgCl2, pH 7.4) and homogenized using an Potter-Elvehjem homogenizer (Fisher Scientific Labosi, Elancourt, France). The homogenate was centrifuged at 1700 g for 15 min (4°C). The sediment was resuspended in buffer, homogenized, and centrifuged at 1700 g for 15 min (4°C). The combined supernatants were centrifuged at 35,000 g for 30 min (4°C), and the pellet was suspended in the same buffer (0.1 ml/dish). […] Cells were grown in a 50∶50 Dulbecco's Modified Eagle's Medium (DMEM)/Ham's F12 medium supplemented with 10% (v/v) foetal bovine serum (FBS), glutamine (2 mM), penicillin (100 units/ml) and streptomycin (100 µg/ml) at 37°C with 5% CO2. Media was changed every 2–3 days and cells were passaged when confluent with 0.05% trypsin and 0.02% EDTA.
(§3) Binding experiments were performed in a 100 µL reaction mix at room temperature in buffer composed of 50 mM Tris-HCl, pH 7.4, 10 mM MgCl2, 1 g/L BSA. Reactions were stopped by filtration through 96 GF/C filter plates pre-incubated with 0.5% polyethylenimine.
(§4) Binding data were analyzed by nonlinear regression using the KaleidaGraph 4.0 software (Synergy software, Reading, PA). pKD values and Bmax (number of binding sites) were determined by applying a nonlinear regression to data obtained with saturation binding assays. The nonlinear regression used was BS = (Bmax*A)/KD+A, where BS is the specific binding, Bmax the number of binding sites, A the concentration of radioligand, and KD the dissociation constant of the radioligand. Data resulting from competition binding assays were analyzed using the Hill equation for IC50 and curve slope estimations. […] The linear curves were analyzed with IC50 = Ki+(L/KD)*Ki. Dissociation kinetics were analyzed using a simple equation of exponential decay BS * exp (-Koff*t), where BS is the specific binding at time zero and Koff is the dissociation rate constant. Results are expressed as mean ± s.e. mean from n independent experiments. One-way Anova test was used to compare values. A p<0.05 was accepted for statistical significance.

[2] = biological target: T2, human α1A-AR F288A variant (Homo sapiens, UniProt P35348, F288A)
T2 construct: expressed in transfected cells; host or cells: COS-7 (transient, calcium phosphate), membranes
T2 sequence (P35348 1-466 F288A): T1 sequence (P35348 1-466 F187A) with A187F, F288A
Description: as §1, §2, §3, §4

[3] = biological target: T3, human α1A-AR D106A variant (Homo sapiens, UniProt P35348, D106A)
T3 construct: expressed in transfected cells; host or cells: COS-7, transient (calcium phosphate)
T3 sequence (P35348 1-466 D106A): T1 sequence (P35348 1-466 F187A) with D106A, A187F
Description: as §1, §2, §3, §4

SMILES: O=C1c2ccccc2CCC1CNCCc1ccc(O)c([125I])c1 (stereo not drawn) [125I-HEAT]
- ^125I-HEAT Ratio (loss of affinity relative to WT) ([1]; F187A): 0.22 ^*
- ^125I-HEAT pKd ([1]; F187A (5.41), saturation binding, n = 3–6): 10.70±0.01
- ^125I-HEAT Ratio (loss of affinity relative to WT) ([2]; F288A): 1.3
- ^125I-HEAT pKd ([2]; F288A (6.51), saturation binding, n = 3–6): 9.92±0.12
- ^125I-HEAT Ratio (loss of affinity relative to WT) ([3]; D106A): 1.7
- ^125I-HEAT pKd ([3]; D106A (3.32), saturation binding, n = 3–6): 9.82±0.11

— publication PMC3723878 (PLoS ONE, 2013)
